According to patent US20020193320A1, “C-2 modified erythromycin derivatives” (priority 1999, published 2002):

Assays:
Test in all cases: In vitro antibacterial activity, agar dilution MIC
Assay type in all cases: cell-based
Candida albicans CCH 442 = tested on: Candida albicans CCH 442; set-up: unit not given here; settings: code TT, BHI agar, 35-37° C., 20 to 24 hours
Method: (§1) Representative compounds of the present invention were assayed in vitro for antibacterial activity as follows: Twelve petri dishes containing successive aqueous dilutions of the test compound mixed with 10 mL of sterilized Brain Heart Infusion (BHI) agar (Difco 0418-01-5) were prepared. Each plate was inoculated with 1:100 (or 1:10 for slow-growing strains, such as Micrococcus and Streptococcus) dilutions of up to 32 different microorganisms, using a Steers replicator block. The inoculated plates were incubated at 35-37° C. for 20 to 24 hours. In addition, a control plate, using BHI agar containing no test compound, was prepared and incubated at the beginning and end of each test.
(§2) An additional plate containing a compound having known susceptibility patterns for the organisms being tested and belonging to the same antibiotic class as the test compound was also prepared and incubated as a further control, as well as to provide test-to-test comparability.
(§3) After incubation, each plate was visually inspected. The minimum inhibitory concentration (MIC) was defined as the lowest concentration of drug yielding no growth, a slight haze, or sparsely isolated colonies on the inoculum spot as compared to the growth control.

[1] = tested on: Enterococcus faecium ATCC X043; set-up: unit not given here; settings: code II, BHI agar, 35-37° C., 20 to 24 hours
Method: as §1, §2, §3

Escherichia coli DC-2 = tested on: Escherichia coli DC-2; set-up: unit not given here; settings: code SS, BHI agar, 35-37° C., 20 to 24 hours
Method: as §1, §2, §3

Escherichia coli JUHL = tested on: Escherichia coli JUHL; set-up: unit not given here; settings: code QQ, BHI agar, 35-37° C., 20 to 24 hours
Method: as §1, §2, §3

Escherichia coli SS = tested on: Escherichia coli SS; set-up: unit not given here; settings: code RR, BHI agar, 35-37° C., 20 to 24 hours
Method: as §1, §2, §3

[2] = tested on: Micrococcus luteus ATCC 9341; set-up: unit not given here; settings: code OO, BHI agar, 35-37° C., 20 to 24 hours
Method: as §1, §2, §3

[3] = tested on: Mycobacterium smegmatis ATCC 114; set-up: unit not given here; settings: code UU, BHI agar, 35-37° C., 20 to 24 hours
Method: as §1, §2, §3

[4] = tested on: Nocardia Asteroides ATCC 99700; set-up: unit not given here; settings: code VV, BHI agar, 35-37° C., 20 to 24 hours
Method: as §1, §2, §3

[5] = tested on: Staphylococcus aureus 1775; set-up: unit not given here; settings: code GG, BHI agar, 35-37° C., 20 to 24 hours
Method: as §1, §2, §3

[6] = tested on: Staphylococcus aureus A-5177; set-up: unit not given here; settings: code BB, BHI agar, 35-37° C., 20 to 24 hours
Method: as §1, §2, §3

[7] = tested on: Staphylococcus aureus A-5278; set-up: unit not given here; settings: code CC, BHI agar, 35-37° C., 20 to 24 hours
Method: as §1, §2, §3

[8] = tested on: Staphylococcus aureus ATCC 6538P; set-up: unit not given here; settings: code AA, BHI agar, 35-37° C., 20 to 24 hours
Method: as §1, §2, §3

[9] = tested on: Staphylococcus aureus CMX 553; set-up: unit not given here; settings: code FF, BHI agar, 35-37° C., 20 to 24 hours
Method: as §1, §2, §3

[10] = tested on: Staphylococcus aureus CMX 642A; set-up: unit not given here; settings: code DD, BHI agar, 35-37° C., 20 to 24 hours
Method: as §1, §2, §3

[11] = tested on: Staphylococcus aureus NCTC 10649M; set-up: unit not given here; settings: code EE, BHI agar, 35-37° C., 20 to 24 hours
Method: as §1, §2, §3

[12] = tested on: Staphylococcus epidermidis 3519; set-up: unit not given here; settings: code HH, BHI agar, 35-37° C., 20 to 24 hours
Method: as §1, §2, §3

[13] = tested on: Streptococcus agalactiae CMX 508; set-up: unit not given here; settings: code KK, BHI agar, 35-37° C., 20 to 24 hours
Method: as §1, §2, §3

[14] = tested on: Streptococcus bovis A-5169; set-up: unit not given here; settings: code JJ, BHI agar, 35-37° C., 20 to 24 hours
Method: as §1, §2, §3

[15] = tested on: Streptococcus pyogenes 930; set-up: unit not given here; settings: code MM, BHI agar, 35-37° C., 20 to 24 hours
Method: as §1, §2, §3

[16] = tested on: Streptococcus pyogenes PIU 2548; set-up: unit not given here; settings: code NN, BHI agar, 35-37° C., 20 to 24 hours
Method: as §1, §2, §3

[17] = tested on: Haemophilis Influenzae DILL AMP R; settings: code WW, 35-37° C., 20 to 24 hours
Method: as §1, §2, §3

[18] = tested on: Micrococcus luteus ATCC 4698; settings: code PP, BHI agar, 35-37° C., 20 to 24 hours
Method: as §1, §2, §3

[19] = tested on: Streptococcus Pneumonia 5649; settings: code ZZA (code list: ZA), 35-37° C., 20 to 24 hours
Method: as §1, §2, §3

[20] = tested on: Streptococcus Pneumonia 5979; settings: code ZZ, 35-37° C., 20 to 24 hours
Method: as §1, §2, §3

[21] = tested on: Streptococcus Pneumonia ATCC 6303; settings: code XX, 35-37° C., 20 to 24 hours
Method: as §1, §2, §3

[22] = tested on: Streptococcus Pneumonia GYR 1171; settings: code YY, 35-37° C., 20 to 24 hours
Method: as §1, §2, §3

[23] = tested on: Streptococcus pyogenes EES61; settings: code LL, BHI agar, 35-37° C., 20 to 24 hours
Method: as §1, §2, §3

Compound | Antibacterial Activity (MIC) (Candida albicans CCH 442) | Antibacterial Activity (MIC) [1] | Antibacterial Activity (MIC) (Escherichia coli DC-2) | Antibacterial Activity (MIC) (Escherichia coli JUHL) | Antibacterial Activity (MIC) (Escherichia coli SS) | Antibacterial Activity (MIC) [2] | Antibacterial Activity (MIC) [3] | Antibacterial Activity (MIC) [4] | Antibacterial Activity (MIC) [5] | Antibacterial Activity (MIC) [6] | Antibacterial Activity (MIC) [7] | Antibacterial Activity (MIC) [8] | Antibacterial Activity (MIC) [9] | Antibacterial Activity (MIC) [10] | Antibacterial Activity (MIC) [11] | Antibacterial Activity (MIC) [12] | Antibacterial Activity (MIC) [13] | Antibacterial Activity (MIC) [14] | Antibacterial Activity (MIC) [15] | Antibacterial Activity (MIC) [16] | also measured
CCC1OC(=O)C(C)(CC=Cc2ccccc2)C(=O)C(C)C(OC2OC(C)CC(N(C)C)C2O)C(C)(OC)CC(C)C(=O)C(C)C2NC(=O)OC12C (stereo not shown) [Example 1, Compound of formula (II): R^a is CH3, R^b is H, Y and Z together are O, T is —NH—, R is —CH2CH═CH-(phenyl)] | 100 | 25 | >100 | >100 | 50 | 3.1 | 25 | 25 | 100 | 25 | 100 | 25 | 50 | 25 | 50 | 50 | 12.5 | 12.5 | 50 | 12.5 | Antibacterial Activity (MIC) [17]: >128; Antibacterial Activity (MIC) [18]: 6.2; Antibacterial Activity (MIC) [19]: 16; Antibacterial Activity (MIC) [20]: 64; Antibacterial Activity (MIC) [21]: 8; Antibacterial Activity (MIC) [22]: 4; Antibacterial Activity (MIC) [23]: 12.5
Compound of formula (II): R^a is CH3, R^b is H, Y and Z together are O, T is —N(W(R^g)-, W is —(CH2)p-, p is 4, R^g is phenyl, R is —OH [Example 2] | 100 | 0.39 | >100 | >100 | 6.2 | 0.39 | 3.1 | 3.1 | 100 | 1.56 | 100 | 1.56 | 1.56 | 3.1 | 1.56 | 3.1 | 0.2 | 0.2 | 25 | 0.39 | Antibacterial Activity (MIC) ([17]; unit assumed): 64 µg/mL; Antibacterial Activity (MIC) ([18]; unit assumed): 0.78 µg/mL; Antibacterial Activity (MIC) ([19]; unit assumed): 1 µg/mL; Antibacterial Activity (MIC) ([20]; unit assumed): 32 µg/mL; Antibacterial Activity (MIC) ([21]; unit assumed): 0.5 µg/mL; Antibacterial Activity (MIC) ([22]; unit assumed): 0.25 µg/mL; Antibacterial Activity (MIC) ([23]; unit assumed): 0.1 µg/mL
CC[C@H]1OC(=O)[C@H](C)[C@@H](O[C@H]2C[C@@](C)(OC)[C@@H](O)[C@H](C)O2)[C@H](C)[C@@H](O[C@@H]2O[C@H](C)C[C@H](N(C)C)[C@H]2O)[C@](C)(O)C[C@@H](C)C(=O)[C@H](C)[C@@H](O)[C@]1(C)O [Ery. A, Erythromycin A, reference compound] | >100 | 0.05 | >100 | >100 | 0.78 | 0.05 | 3.1 | 0.1 | >100 | 3.1 | >100 | 0.2 | 0.39 | 0.39 | 0.39 | 0.39 | 0.05 | 0.02 | >100 | 6.2 | Antibacterial Activity (MIC) [17]: 4; Antibacterial Activity (MIC) [18]: 0.2; Antibacterial Activity (MIC) [19]: 16; Antibacterial Activity (MIC) [21]: 0.06; Antibacterial Activity (MIC) [22]: 0.06; Antibacterial Activity (MIC) [23]: 0.05
CCC1OC(=O)C(C)(O)C(=O)C(C)C(OC2OC(C)CC(N(C)C)C2O)C(C)(OC)CC(C)C(=O)C(C)C2N(CCCCc3ccccc3)C(=O)OC12C (stereo not shown) [Example 10, Compound of formula (II): R^a is CH3, R^b is H, Y and Z together are O, T is —N(W(R^g))-, W is —(CH2)p-, p is 4, R^g is phenyl R is —OH] | 25 | 0.39 | >100 | >100 | 3.1 | 0.39 | 1.56 | 1.56 | 25 | 1.56 | 25 | 1.56 | 1.56 | 1.56 | 1.56 | 1.56 | 0.2 | 0.2 | 6.2 | 1.56 | Antibacterial Activity (MIC) ([17]; unit assumed): 16 µg/mL; Antibacterial Activity (MIC) [18]: 0.39; Antibacterial Activity (MIC) [23]: 0.2
